Results published in PubChem BioAssay (NCI).
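Assay format: 96-well plates, 48-hour exposure. TGI: total growth inhibition.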 Where a SMILES comes first, the peptide text is derived from it. Bridges are numbered along the chain shown (N, C = ends). [ ]: non-standard residue; d: D form. The star is where a group is joined. Cya = N[CH](CS(=O)(=O)O)C(=O)O; X49 = CC(C)CCCCCCCC(O)CC(=O)*; GABA = NCCCC(=O)O

Experiments:
Experiment in all cases: NCI anticancer screen, dose series, 48 h
HCT-116 colon = tested on: HCT-116 colon
K-562 leukemia = tested on: K-562 leukemia
MCF7 breast = tested on: MCF7 breast
SN12C renal = tested on: SN12C renal
MALME-3M melanoma = tested on: MALME-3M melanoma
SR leukemia = tested on: SR leukemia
CCRF-CEM leukemia = tested on: CCRF-CEM leukemia
OVCAR-3 ovarian = tested on: OVCAR-3 ovarian
PC-3 prostate = tested on: PC-3 prostate
HOP-92 NSCLC = tested on: HOP-92 NSCLC
IGROV1 ovarian = tested on: IGROV1 ovarian
COLO 205 colon = tested on: COLO 205 colon
HS 578T breast = tested on: HS 578T breast
KM12 colon = tested on: KM12 colon
HCC-2998 colon = tested on: HCC-2998 colon
NCI/ADR-RES ovarian = tested on: NCI/ADR-RES ovarian
SF-295 CNS = tested on: SF-295 CNS
SNB-19 CNS = tested on: SNB-19 CNS
SK-OV-3 ovarian = tested on: SK-OV-3 ovarian
TK-10 renal = tested on: TK-10 renal
SNB-75 CNS = tested on: SNB-75 CNS
MOLT-4 leukemia = tested on: MOLT-4 leukemia
ACHN renal = tested on: ACHN renal
HCT-15 colon = tested on: HCT-15 colon
MDA-N = tested on: MDA-N
A549 NSCLC = tested on: A549 NSCLC
EKVX NSCLC = tested on: EKVX NSCLC
OVCAR-8 ovarian = tested on: OVCAR-8 ovarian
U251 CNS = tested on: U251 CNS
SK-MEL-5 melanoma = tested on: SK-MEL-5 melanoma
OVCAR-5 ovarian = tested on: OVCAR-5 ovarian
MDA-MB-231 breast = tested on: MDA-MB-231 breast
OVCAR-4 ovarian = tested on: OVCAR-4 ovarian
MDA-MB-435 = tested on: MDA-MB-435
SK-MEL-28 melanoma = tested on: SK-MEL-28 melanoma
NCI-H226 lung = tested on: NCI-H226 lung
786-0 renal = tested on: 786-0 renal
LOX IMVI melanoma = tested on: LOX IMVI melanoma
NCI-H522 lung = tested on: NCI-H522 lung
RPMI-8226 leukemia = tested on: RPMI-8226 leukemia
HOP-62 NSCLC = tested on: HOP-62 NSCLC
BT-549 breast = tested on: BT-549 breast
HL-60(TB) leukemia = tested on: HL-60(TB) leukemia
M14 melanoma = tested on: M14 melanoma
CAKI-1 renal = tested on: CAKI-1 renal
SW-620 colon = tested on: SW-620 colon
UO-31 renal = tested on: UO-31 renal
UACC-257 melanoma = tested on: UACC-257 melanoma
T-47D breast = tested on: T-47D breast
NCI-H460 lung = tested on: NCI-H460 lung
HT29 colon = tested on: HT29 colon
SK-MEL-2 melanoma = tested on: SK-MEL-2 melanoma
DU-145 prostate = tested on: DU-145 prostate
A498 renal = tested on: A498 renal
UACC-62 melanoma = tested on: UACC-62 melanoma
NCI-H23 lung = tested on: NCI-H23 lung
SF-539 CNS = tested on: SF-539 CNS
SF-268 CNS = tested on: SF-268 CNS

`CCOC(=O)C(CS)NC(=O)CCCCCCCC(=O)O` (configuration not stated) was tested, and the TGI (HCT-116 colon) was > 100 µM, the TGI (K-562 leukemia) was > 100 µM and the TGI (MCF7 breast) was > 100 µM. For the same compound, the TGI (SN12C renal) was > 100 µM, the TGI (MALME-3M melanoma) was > 100 µM and the TGI (SR leukemia) was > 100 µM. The TGI (CCRF-CEM leukemia) was > 100 µM, the TGI (OVCAR-3 ovarian) was > 100 µM and the TGI (PC-3 prostate) was > 100 µM. For the same compound, the TGI (HOP-92 NSCLC) was > 100 µM, the TGI (IGROV1 ovarian) was > 100 µM and the TGI (COLO 205 colon) was > 100 µM. For the same compound, the TGI (HS 578T breast) was > 100 µM, the TGI (KM12 colon) was > 100 µM and the TGI (HCC-2998 colon) was > 100 µM. For the same compound, the TGI (NCI/ADR-RES ovarian) was > 100 µM, the TGI (SF-295 CNS) was > 100 µM and the TGI (SNB-19 CNS) was > 100 µM. The TGI (SK-OV-3 ovarian) was > 100 µM, the TGI (TK-10 renal) was > 100 µM and the TGI (SNB-75 CNS) was > 100 µM. The TGI (MOLT-4 leukemia) was > 100 µM, the TGI (ACHN renal) was > 100 µM and the TGI (HCT-15 colon) was > 100 µM. For the same compound, the TGI (MDA-N) was > 100 µM, the TGI (A549 NSCLC) was > 100 µM and the TGI (EKVX NSCLC) was > 100 µM. For the same compound, the TGI (OVCAR-8 ovarian) was > 100 µM, the TGI (U251 CNS) was > 100 µM and the TGI (SK-MEL-5 melanoma) was > 100 µM. For the same compound, the TGI (OVCAR-5 ovarian) was > 100 µM, the TGI (MDA-MB-231 breast) was > 100 µM and the TGI (OVCAR-4 ovarian) was > 100 µM. For the same compound, the TGI (MDA-MB-435) was > 100 µM, the TGI (SK-MEL-28 melanoma) was > 100 µM and the TGI (NCI-H226 lung) was > 100 µM. For the same compound, the TGI (786-0 renal) was > 100 µM, the TGI (LOX IMVI melanoma) was > 100 µM and the TGI (NCI-H522 lung) was > 100 µM. The TGI (RPMI-8226 leukemia) was > 100 µM, the TGI (HOP-62 NSCLC) was > 100 µM and the TGI (BT-549 breast) was > 100 µM. The TGI (HL-60(TB) leukemia) was > 100 µM, the TGI (M14 melanoma) was > 100 µM and the TGI (CAKI-1 renal) was > 100 µM. For the same compound, the TGI (SW-620 colon) was > 100 µM, the TGI (UO-31 renal) was > 100 µM and the TGI (UACC-257 melanoma) was > 100 µM. The TGI (T-47D breast) was > 100 µM, the TGI (NCI-H460 lung) was > 100 µM and the TGI (HT29 colon) was > 100 µM. The TGI (SK-MEL-2 melanoma) was > 100 µM, the TGI (DU-145 prostate) was > 100 µM and the TGI (A498 renal) was > 100 µM. For the same compound, the TGI (UACC-62 melanoma) was > 100 µM and the TGI (NCI-H23 lung) was > 100 µM.

With `CC(C)CCCCCCCC(O)CC(=O)NC(CS(=O)(=O)O)C(=O)NC(CC(C)C)C(=O)NCCCC(=O)NC(Cc1cnc[nH]1)C(=O)NC(C)C(=O)NC1C(=O)NC(C(C)O)C(=O)NC(Cc2cnc[nH]2)C(=O)NC(C)C(=O)NC(C(C)O)C(=O)OC1C` (configuration not stated) (X49-[Cya]L[GABA]HATTHAT; ester 6-C; configuration not given here) the TGI (HCT-116 colon) was > 25 µM, the TGI (K-562 leukemia) was > 25 µM and the TGI (MCF7 breast) was > 25 µM. The TGI (SN12C renal) was > 25 µM, the TGI (MALME-3M melanoma) was > 25 µM and the TGI (SR leukemia) was > 25 µM. The TGI (CCRF-CEM leukemia) was > 25 µM, the TGI (OVCAR-3 ovarian) was > 25 µM and the TGI (PC-3 prostate) was > 25 µM. For the same compound, the TGI (HOP-92 NSCLC) was > 25 µM, the TGI (IGROV1 ovarian) was > 25 µM and the TGI (COLO 205 colon) was > 25 µM. For the same compound, the TGI (HS 578T breast) was > 25 µM, the TGI (KM12 colon) was > 25 µM and the TGI (HCC-2998 colon) was > 25 µM. The TGI (NCI/ADR-RES ovarian) was > 25 µM, the TGI (SF-295 CNS) was > 25 µM and the TGI (SNB-19 CNS) was > 25 µM. The TGI (SK-OV-3 ovarian) was > 25 µM, the TGI (TK-10 renal) was > 25 µM and the TGI (SNB-75 CNS) was > 25 µM. For the same compound, the TGI (MOLT-4 leukemia) was > 25 µM, the TGI (ACHN renal) was > 25 µM and the TGI (HCT-15 colon) was > 25 µM. The TGI (MDA-N) was > 25 µM, the TGI (A549 NSCLC) was > 25 µM and the TGI (EKVX NSCLC) was > 25 µM. For the same compound, the TGI (OVCAR-8 ovarian) was > 25 µM, the TGI (U251 CNS) was > 25 µM and the TGI (SK-MEL-5 melanoma) was > 25 µM. For the same compound, the TGI (OVCAR-5 ovarian) was > 25 µM, the TGI (MDA-MB-231 breast) was > 25 µM and the TGI (OVCAR-4 ovarian) was > 25 µM. The TGI (MDA-MB-435) was > 25 µM, the TGI (SK-MEL-28 melanoma) was > 25 µM and the TGI (NCI-H226 lung) was > 25 µM. The TGI (786-0 renal) was > 25 µM, the TGI (LOX IMVI melanoma) was > 25 µM and the TGI (NCI-H522 lung) was > 25 µM. For the same compound, the TGI (RPMI-8226 leukemia) was > 25 µM, the TGI (HOP-62 NSCLC) was > 25 µM and the TGI (BT-549 breast) was > 25 µM. The TGI (HL-60(TB) leukemia) was > 25 µM, the TGI (M14 melanoma) was > 25 µM and the TGI (CAKI-1 renal) was > 25 µM. The TGI (SW-620 colon) was > 25 µM, the TGI (UO-31 renal) was > 25 µM and the TGI (UACC-257 melanoma) was > 25 µM. The TGI (T-47D breast) was > 25 µM, the TGI (NCI-H460 lung) was > 25 µM and the TGI (HT29 colon) was > 25 µM. The TGI (SK-MEL-2 melanoma) was > 25 µM, the TGI (DU-145 prostate) was > 25 µM and the TGI (A498 renal) was > 25 µM. For the same compound, the TGI (SF-539 CNS) was > 25 µM, the TGI (UACC-62 melanoma) was > 25 µM and the TGI (NCI-H23 lung) was > 25 µM.

For `Cc1c2ccccc2c(C)n2c1nc1cc3ccccc3cc12`, the TGI (HCT-116 colon) was 2.71 µM, the TGI (K-562 leukemia) was > 10 µM and the TGI (MCF7 breast) was 1.6 µM. The TGI (SN12C renal) was > 10 µM, the TGI (MALME-3M melanoma) was 2.63 µM and the TGI (SR leukemia) was 7.34 µM. It also gave a TGI (CCRF-CEM leukemia) of 6.65 µM, a TGI (OVCAR-3 ovarian) of 2.18 µM and a TGI (PC-3 prostate) of 2.79 µM. For the same compound, the TGI (HOP-92 NSCLC) was 8.89 µM, the TGI (IGROV1 ovarian) was 2.53 µM and the TGI (COLO 205 colon) was 2.82 µM. For the same compound, the TGI (HS 578T breast) was 3.56 µM, the TGI (KM12 colon) was 2.62 µM and the TGI (HCC-2998 colon) was 3.27 µM. For the same compound, the TGI (NCI/ADR-RES ovarian) was 2.38 µM, the TGI (SF-295 CNS) was 2.28 µM and the TGI (SNB-19 CNS) was 5.01 µM. The TGI (SK-OV-3 ovarian) was 7.74 µM, the TGI (TK-10 renal) was 8.43 µM and the TGI (SNB-75 CNS) was 3.48 µM. The TGI (MOLT-4 leukemia) was 3.78 µM, the TGI (ACHN renal) was > 10 µM and the TGI (HCT-15 colon) was 3.67 µM. The TGI (MDA-N) was 2.89 µM, the TGI (A549 NSCLC) was 3.6 µM and the TGI (EKVX NSCLC) was 9.75 µM. For the same compound, the TGI (OVCAR-8 ovarian) was 2.21 µM, the TGI (U251 CNS) was 3.7 µM and the TGI (SK-MEL-5 melanoma) was 4.46 µM. For the same compound, the TGI (SF-268 CNS) was 3.32 µM, the TGI (OVCAR-5 ovarian) was 2.29 µM and the TGI (MDA-MB-231 breast) was 2.71 µM. For the same compound, the TGI (OVCAR-4 ovarian) was 3.12 µM, the TGI (MDA-MB-435) was 3.07 µM and the TGI (SK-MEL-28 melanoma) was 2.92 µM. The TGI (786-0 renal) was 2.18 µM, the TGI (NCI-H522 lung) was 4.88 µM and the TGI (RPMI-8226 leukemia) was 6.13 µM. For the same compound, the TGI (HOP-62 NSCLC) was 2.76 µM, the TGI (BT-549 breast) was 3.98 µM and the TGI (HL-60(TB) leukemia) was 4.59 µM. For the same compound, the TGI (M14 melanoma) was 2.76 µM, the TGI (CAKI-1 renal) was 2.89 µM and the TGI (SW-620 colon) was > 10 µM. For the same compound, the TGI (UACC-257 melanoma) was > 10 µM, the TGI (T-47D breast) was > 10 µM and the TGI (NCI-H460 lung) was 2.55 µM. The TGI (HT29 colon) was 2.15 µM, the TGI (SK-MEL-2 melanoma) was 4.99 µM and the TGI (DU-145 prostate) was 2.78 µM. It also gave a TGI (SF-539 CNS) of 2.86 µM, a TGI (UACC-62 melanoma) of 3.9 µM and a TGI (NCI-H23 lung) of 2.8 µM.
